Measurements reported in patent US20260232767A1, “INTERLEUKIN-23 RECEPTOR ANTAGONIST PEPTIDES FOR USE IN THE TREATMENT OF PSORIASIS” (Janssen Pharmaceutica NV, priority 2023, published 2026).

Tested on: subjects with moderate-to-severe plaque psoriasis
Experiment: Hematology and chemistry laboratory values by CTCAE grade
Assay type: in vivo, human
Settings: through Week 56
Description: The proportion of participants who discontinued study intervention due to one or more AEs was low (n=4). All events were singular in nature with no apparent dose-dependent increase (Table 48 and Table 52). The number of participants with abnormal hematology and chemistry laboratory values with CTCAE toxicity grade≥3 were low through the end of the study (Table 43 through Table 46). There was no apparent dose-dependent increase in laboratory abnormality occurrences.

CC(=O)NCCCC[C@@H]1NC(=O)[C@H](Cc2c[nH]c3c(C)cccc23)NC(=O)[C@H]([C@@H](C)O)NC(=O)[C@H](CC(N)=O)NC(=O)[C@@H](NC(C)=O)C(C)(C)SSC(C)(C)[C@@H](C(=O)N[C@@H](Cc2ccc(OCCN)cc2)C(=O)N[C@@H](Cc2ccc3ccccc3c2)C(=O)NC2(C(=O)N[C@@H](CCC(=O)O)C(=O)N[C@@H](CC(N)=O)C(=O)N[C@@H](Cc3cccnc3)C(=O)N(C)CC(N)=O)CCOCC2)NC1=O [IL-23 receptor antagonist peptide, Ac-[Pen]*-N-T-[W(7-Me)]-[Lys(Ac)]-[Pen]*-Phe[4-(2-aminoethoxy)]-[2-Nal]-[THP]-E-N-[3-Pal]-Sarc-NH2 (*[Pen]-[Pen]* formdisulfidebond)]
Alanine Aminotransferase (increased): Subjects with Grade 3 (25 mg BID): 0 | Alanine Aminotransferase (increased): Subjects with Grade 4 (25 mg BID): 0 | Albumin (decreased): Subjects with Grade 1 (25 mg BID): 0 | Albumin (decreased): Subjects with Grade 2 (25 mg BID): 0 | Albumin (decreased): Subjects with Grade 3 (25 mg BID): 0 | Albumin (decreased): Subjects with Grade 4 (25 mg BID): 0 | Albumin (decreased): Subjects with postbaseline maximum toxicity grade >0 (25 mg BID): 0 | Alkaline Phosphatase (increased): Subjects with Grade 2 (25 mg BID): 0 | Alkaline Phosphatase (increased): Subjects with Grade 3 (25 mg BID): 0 | Alkaline Phosphatase (increased): Subjects with Grade 4 (25 mg BID): 0 | Aspartate Aminotransferase (increased): Subjects with Grade 3 (25 mg BID): 0 | Aspartate Aminotransferase (increased): Subjects with Grade 4 (25 mg BID): 0 | Calcium corrected (decreased): Subjects with Grade 2 (25 mg BID): 0 | Calcium corrected (decreased): Subjects with Grade 3 (25 mg BID): 0 | Calcium corrected (decreased): Subjects with Grade 4 (25 mg BID): 0 | Calcium corrected (increased): Subjects with Grade 1 (25 mg BID): 0 | Calcium corrected (increased): Subjects with Grade 2 (25 mg BID): 0 | Calcium corrected (increased): Subjects with Grade 3 (25 mg BID): 0 | Calcium corrected (increased): Subjects with Grade 4 (25 mg BID): 0 | Calcium corrected (increased): Subjects with postbaseline maximum toxicity grade >0 (25 mg BID): 0 | Cholesterol (increased): Subjects with Grade 2 (25 mg BID): 0 | Cholesterol (increased): Subjects with Grade 3 (25 mg BID): 0 | Cholesterol (increased): Subjects with Grade 4 (25 mg BID): 0 | Creatinine (increased): Subjects with Grade 1 (25 mg BID): 0 | Creatinine (increased): Subjects with Grade 2 (25 mg BID): 0 | Creatinine (increased): Subjects with Grade 3 (25 mg BID): 0 | Creatinine (increased): Subjects with Grade 4 (25 mg BID): 0 | Creatinine (increased): Subjects with postbaseline maximum toxicity grade >0 (25 mg BID): 0 | Gamma Glutamyl Transferase (increased): Subjects with Grade 2 (25 mg BID): 0 | Gamma Glutamyl Transferase (increased): Subjects with Grade 3 (25 mg BID): 0 | Gamma Glutamyl Transferase (increased): Subjects with Grade 4 (25 mg BID): 0 | Glucose (decreased): Subjects with Grade 2 (25 mg BID): 0 | Glucose (decreased): Subjects with Grade 3 (25 mg BID): 0 | Glucose (decreased): Subjects with Grade 4 (25 mg BID): 0 | Hemoglobin (g/L) (decreased): subjects with Grade 1 (25 mg BID): 0 | Hemoglobin (g/L) (decreased): subjects with Grade 2 (25 mg BID): 0 | Hemoglobin (g/L) (decreased): subjects with Grade 3 (25 mg BID): 0 | Hemoglobin (g/L) (decreased): subjects with Grade 4 (25 mg BID): 0 | Hemoglobin (g/L) (decreased): subjects with postbaseline maximum toxicity grade >0 (25 mg BID): 0 | Hemoglobin (g/L) (increased): subjects with Grade 2 (25 mg BID): 0 | Hemoglobin (g/L) (increased): subjects with Grade 3 (25 mg BID): 0 | Hemoglobin (g/L) (increased): subjects with Grade 4 (25 mg BID): 0 | Lymphocytes (×10^9/L) (decreased): subjects with Grade 3 (25 mg BID): 0 | Lymphocytes (×10^9/L) (decreased): subjects with Grade 4 (25 mg BID): 0 | Lymphocytes (×10^9/L) (increased): subjects with Grade 1 (25 mg BID): 0 | Lymphocytes (×10^9/L) (increased): subjects with Grade 3 (25 mg BID): 0 | Lymphocytes (×10^9/L) (increased): subjects with Grade 4 (25 mg BID): 0 | Magnesium (decreased): Subjects with Grade 1 (25 mg BID): 0 | Magnesium (decreased): Subjects with Grade 2 (25 mg BID): 0 | Magnesium (decreased): Subjects with Grade 3 (25 mg BID): 0 | Magnesium (decreased): Subjects with Grade 4 (25 mg BID): 0 | Magnesium (decreased): Subjects with postbaseline maximum toxicity grade >0 (25 mg BID): 0 | Magnesium (increased): Subjects with Grade 2 (25 mg BID): 0 | Magnesium (increased): Subjects with Grade 3 (25 mg BID): 0 | Magnesium (increased): Subjects with Grade 4 (25 mg BID): 0 | Neutrophils (×10^9/L) (decreased): subjects with Grade 3 (25 mg BID): 0 | Neutrophils (×10^9/L) (decreased): subjects with Grade 4 (25 mg BID): 0 | Platelets (×10^9/L) (decreased): subjects with Grade 2 (25 mg BID): 0 | Platelets (×10^9/L) (decreased): subjects with Grade 3 (25 mg BID): 0 | Platelets (×10^9/L) (decreased): subjects with Grade 4 (25 mg BID): 0 | Potassium (decreased): Subjects with Grade 1 (25 mg BID): 0 | Potassium (decreased): Subjects with Grade 2 (25 mg BID): 0 | Potassium (decreased): Subjects with Grade 3 (25 mg BID): 0 | Potassium (decreased): Subjects with Grade 4 (25 mg BID): 0 | Potassium (decreased): Subjects with postbaseline maximum toxicity grade >0 (25 mg BID): 0 | Potassium (increased): Subjects with Grade 2 (25 mg BID): 0 | Potassium (increased): Subjects with Grade 3 (25 mg BID): 0 | Potassium (increased): Subjects with Grade 4 (25 mg BID): 0 | Sodium (decreased): Subjects with Grade 1 (25 mg BID): 0 | Sodium (decreased): Subjects with Grade 2 (25 mg BID): 0 | Sodium (decreased): Subjects with Grade 3 (25 mg BID): 0 | Sodium (decreased): Subjects with Grade 4 (25 mg BID): 0 | Sodium (decreased): Subjects with postbaseline maximum toxicity grade >0 (25 mg BID): 0 | Sodium (increased): Subjects with Grade 2 (25 mg BID): 0 | Sodium (increased): Subjects with Grade 3 (25 mg BID): 0 | Sodium (increased): Subjects with Grade 4 (25 mg BID): 0 | Total Bilirubin (increased): Subjects with Grade 2 (25 mg BID): 0 | Total Bilirubin (increased): Subjects with Grade 3 (25 mg BID): 0 | Total Bilirubin (increased): Subjects with Grade 4 (25 mg BID): 0 | Triglycerides (increased): Subjects with Grade 3 (25 mg BID): 0 | Triglycerides (increased): Subjects with postbaseline maximum toxicity grade >0 (25 mg BID): 8 | WBC (×10^9/L) (decreased): subjects with Grade 3 (25 mg BID): 0 | WBC (×10^9/L) (decreased): subjects with Grade 4 (25 mg BID): 0 | WBC (×10^9/L) (increased): subjects with Grade 1 (25 mg BID): 0 | WBC (×10^9/L) (increased): subjects with Grade 2 (25 mg BID): 0 | WBC (×10^9/L) (increased): subjects with Grade 3 (25 mg BID): 0 | WBC (×10^9/L) (increased): subjects with Grade 4 (25 mg BID): 0 | WBC (×10^9/L) (increased): subjects with postbaseline maximum toxicity grade >0 (25 mg BID): 0 | Alanine Aminotransferase (increased): Subjects with Grade 1 (25 mg QD): 7 | Alanine Aminotransferase (increased): Subjects with Grade 4 (25 mg QD): 0 | Alanine Aminotransferase (increased): Subjects with postbaseline maximum toxicity grade >0 (25 mg QD): 9 | Albumin (decreased): Subjects with Grade 1 (25 mg QD): 0 | Albumin (decreased): Subjects with Grade 2 (25 mg QD): 0 | Albumin (decreased): Subjects with Grade 3 (25 mg QD): 0 | Albumin (decreased): Subjects with Grade 4 (25 mg QD): 0 | Albumin (decreased): Subjects with postbaseline maximum toxicity grade >0 (25 mg QD): 0 | Alkaline Phosphatase (increased): Subjects with Grade 2 (25 mg QD): 0 | Alkaline Phosphatase (increased): Subjects with Grade 3 (25 mg QD): 0 | Alkaline Phosphatase (increased): Subjects with Grade 4 (25 mg QD): 0 | Aspartate Aminotransferase (increased): Subjects with Grade 1 (25 mg QD): 5 | Aspartate Aminotransferase (increased): Subjects with Grade 3 (25 mg QD): 0 | Aspartate Aminotransferase (increased): Subjects with Grade 4 (25 mg QD): 0 | Calcium corrected (decreased): Subjects with Grade 2 (25 mg QD): 0 | Calcium corrected (decreased): Subjects with Grade 3 (25 mg QD): 0 | Calcium corrected (decreased): Subjects with Grade 4 (25 mg QD): 0 | Calcium corrected (increased): Subjects with Grade 1 (25 mg QD): 0 | Calcium corrected (increased): Subjects with Grade 2 (25 mg QD): 0 | Calcium corrected (increased): Subjects with Grade 3 (25 mg QD): 0 | Calcium corrected (increased): Subjects with Grade 4 (25 mg QD): 0 | Calcium corrected (increased): Subjects with postbaseline maximum toxicity grade >0 (25 mg QD): 0 | Cholesterol (increased): Subjects with Grade 2 (25 mg QD): 0 | Cholesterol (increased): Subjects with Grade 3 (25 mg QD): 0 | Cholesterol (increased): Subjects with Grade 4 (25 mg QD): 0 | Creatinine (increased): Subjects with Grade 2 (25 mg QD): 0 | Creatinine (increased): Subjects with Grade 3 (25 mg QD): 0 | Creatinine (increased): Subjects with Grade 4 (25 mg QD): 0 | Gamma Glutamyl Transferase (increased): Subjects with Grade 1 (25 mg QD): 5 | Gamma Glutamyl Transferase (increased): Subjects with Grade 2 (25 mg QD): 0 | Gamma Glutamyl Transferase (increased): Subjects with Grade 3 (25 mg QD): 0 | Gamma Glutamyl Transferase (increased): Subjects with Grade 4 (25 mg QD): 0 | Gamma Glutamyl Transferase (increased): Subjects with postbaseline maximum toxicity grade >0 (25 mg QD): 5 | Glucose (decreased): Subjects with Grade 2 (25 mg QD): 0 | Glucose (decreased): Subjects with Grade 3 (25 mg QD): 0 | Glucose (decreased): Subjects with Grade 4 (25 mg QD): 0 | Hemoglobin (g/L) (decreased): subjects with Grade 2 (25 mg QD): 0 | Hemoglobin (g/L) (decreased): subjects with Grade 3 (25 mg QD): 0 | Hemoglobin (g/L) (decreased): subjects with Grade 4 (25 mg QD): 0 | Hemoglobin (g/L) (increased): subjects with Grade 2 (25 mg QD): 0 | Hemoglobin (g/L) (increased): subjects with Grade 3 (25 mg QD): 0 | Hemoglobin (g/L) (increased): subjects with Grade 4 (25 mg QD): 0 | Lymphocytes (×10^9/L) (decreased): subjects with Grade 1 (25 mg QD): 0 | Lymphocytes (×10^9/L) (decreased): subjects with Grade 2 (25 mg QD): 0 | Lymphocytes (×10^9/L) (decreased): subjects with Grade 3 (25 mg QD): 0 | Lymphocytes (×10^9/L) (decreased): subjects with Grade 4 (25 mg QD): 0 | Lymphocytes (×10^9/L) (decreased): subjects with postbaseline maximum toxicity grade >0 (25 mg QD): 0 | Lymphocytes (×10^9/L) (increased): subjects with Grade 1 (25 mg QD): 0 | Lymphocytes (×10^9/L) (increased): subjects with Grade 2 (25 mg QD): 0 | Lymphocytes (×10^9/L) (increased): subjects with Grade 3 (25 mg QD): 0 | Lymphocytes (×10^9/L) (increased): subjects with Grade 4 (25 mg QD): 0 | Lymphocytes (×10^9/L) (increased): subjects with postbaseline maximum toxicity grade >0 (25 mg QD): 0 | Magnesium (decreased): Subjects with Grade 1 (25 mg QD): 0 | Magnesium (decreased): Subjects with Grade 2 (25 mg QD): 0 | Magnesium (decreased): Subjects with Grade 3 (25 mg QD): 0 | Magnesium (decreased): Subjects with Grade 4 (25 mg QD): 0 | Magnesium (decreased): Subjects with postbaseline maximum toxicity grade >0 (25 mg QD): 0 | Magnesium (increased): Subjects with Grade 2 (25 mg QD): 0 | Magnesium (increased): Subjects with Grade 3 (25 mg QD): 0 | Magnesium (increased): Subjects with Grade 4 (25 mg QD): 0 | Neutrophils (×10^9/L) (decreased): subjects with Grade 2 (25 mg QD): 0 | Neutrophils (×10^9/L) (decreased): subjects with Grade 3 (25 mg QD): 0 | Neutrophils (×10^9/L) (decreased): subjects with Grade 4 (25 mg QD): 0
